Experiment [1] relates to Enterococcus faecalis ATCC 19433. Briefly: Inhibition of bacterial growth in culture, spiral gradient endpoint assay (MIC). The conditions noted are these: Enterococcus faecalis, ATCC 19433 /, 16 h, read-out: MIC E. faecalis, Mueller-Hinton II agar, 16 h at 37° C. In kind it is cell-based. An excerpt:
J. Microbiol. Meths. […] Int. J. Exp. Clin. Chemother. […] Adv.

The subject of experiment [2] is Escherichia coli D21f2tolC. Briefly: microbe, parasite or virus in culture. To be noted: 16 h, read-out: MIC E. coli D21f2tolC, Mueller-Hinton II agar, 16 h at 37° C.
The test system of experiment [3] is Staphylococcus aureus ATCC 12600. The experiment is described as follows: Inhibition of bacterial growth in culture, spiral gradient endpoint assay (MIC). The conditions noted are these: Staphylococcus aureus, ATCC12600, 16 h, read-out: MIC S. aureus 12600, Mueller-Hinton II agar, 16 h at 37° C.

Converted amounts (≈) assume the structure as drawn.

For `O=C(/C=C/c1ccc(Oc2ccc(Cl)cc2)cc1C(F)(F)F)c1c(O)cc(O)cc1O` [Example 17, (E)-3-(4-(4-chlorophenoxy)-2-(trifluoromethyl)phenyl)-1-(2,4,6-trihydroxyphenyl)prop-2-en-1-one], the MIC amounted to 1.9 µg/mL (≈ 4.21 µM) in experiment [1], 2.5 µg/mL (≈ 5.55 µM) in experiment [2] and 1.8 µg/mL (≈ 3.99 µM) in experiment [3].

Regarding `CCCC1(CCC)C(=O)C(C(=O)C2CC2c2ccc(Oc3ccccc3)cc2)=C(O)C=C1O` (stereo not drawn) [Example 60, 3,5-dihydroxy-2-(2-(4-phenoxyphenyl)cyclopropanecarbonyl)-6,6-dipropylcyclohexa-2,4-dien-1one], the MIC is over 40 µg/mL in experiment [1], 3.9 µg/mL (≈ 8.73 µM) in experiment [2] and 10 µg/mL (≈ 22.4 µM) in experiment [3].

Take `Cc1ccc(C2CC2C(=O)c2c(O)cc(O)cc2O)c(C)c1` (stereo not drawn) [Example 20, (2-(2,4-dimethylphenyl)cyclopropyl)(2,4,6-trihydroxyphenyl)methanone]: the MIC in experiment [1] stood at 2.4 µg/mL (≈ 8.04 µM); in experiment [2], 1.7 µg/mL (≈ 5.7 µM); in experiment [3], 2.1 µg/mL (≈ 7.04 µM).

Turning to `CC1=C(O)C(C)(C)C(=O)C(C(=O)C2CC2c2ccc(C(F)(F)F)cc2C(F)(F)F)=C1O` (stereo not drawn) [Example 83, 2-(2-(2,4-bis(trifluoromethyl)phenyl)cyclopropanecarbonyl)-3,5-dihydroxy-4,6,6-trimethylcyclohexa-2,4-dienone], the MIC was over 40 µg/mL in experiment [1], 2.4 µg/mL (≈ 5.35 µM) in experiment [2] and 5 µg/mL (≈ 11.2 µM) in experiment [3].

For `O=C(c1c(O)cc(O)cc1O)C1CC1c1ccc(Cl)cc1` (stereo not drawn) [Example 2, (2-(4-chlorophenyl)cyclopropyl)(2,4,6-trihydroxyphenyl)methanone], the MIC in experiment [1] was 12 µg/mL (≈ 39.4 µM); in experiment [2] it was 9.3 µg/mL (≈ 30.5 µM); in experiment [3], 12 µg/mL (≈ 39.4 µM).

With `Cc1cc(Oc2ccccc2)ccc1C1CC1C(=O)c1c(O)cc(O)c(Cl)c1O` (stereo not drawn) [Example 42, (3-chloro-2,4,6-trihydroxyphenyl)(2-(2-methyl-4-phenoxyphenyl)cyclopropyl)methanone], the MIC in experiment [1] amounted to 16 µg/mL (≈ 38.9 µM); in experiment [2], 10 µg/mL (≈ 24.3 µM); in experiment [3] it was 14 µg/mL (≈ 34.1 µM).

On to `O=C(c1c(O)cc(O)c(Cl)c1O)C1CC1c1ccc(Oc2ccc(F)cc2)cc1C(F)(F)F` (stereo not drawn) [Example 51, (3-chloro-2,4,6-trihydroxyphenyl)(2-(4-(4-fluorophenoxy)-2-(trifluoromethyl)phenyl)cyclopropyl)methanone], for which the values for the MIC in experiment [1], in experiment [2] and in experiment [3] were 15 µg/mL (≈ 31.1 µM), 16 µg/mL (≈ 33.1 µM) and 11 µg/mL (≈ 22.8 µM), respectively.

Regarding `O=C(c1c(O)cc(O)cc1O)C1CC1c1ccc(C(F)(F)F)cc1C(F)(F)F` (stereo not drawn) [Example 57, (2-(2,4-bis(trifluoromethyl)phenyl)cyclopropyl)(2,4,6-trihydroxyphenyl)methanone], the MIC in experiment [1] came to 5.7 µg/mL (≈ 14 µM); in experiment [2], 3.5 µg/mL (≈ 8.61 µM); in experiment [3], 4.3 µg/mL (≈ 10.6 µM).

In the case of `Cc1ccc(CCC(=O)c2c(O)cc(O)cc2O)s1` [Example 1, 3-(5-methylthiophen-2-yl)-1-(2,4,6-trihydroxyphenyl)propan-1-one], the MIC is over 40 µg/mL in experiment [1], 24 µg/mL (≈ 86.2 µM) in experiment [2] and 32 µg/mL (≈ 115 µM) in experiment [3].

Consider `CC1=C(O)C(C)(C)C(=O)C(C(=O)C2CC2c2ccc(C(F)(F)F)cc2)=C1O` (stereo not drawn) [Example 88, 3,5-dihydroxy-4,6,6-trimethyl-2-(2-(4-(trifluoromethyl)phenyl)cyclopropanecarbonyl)cyclohexa-2,4-dienone], for which the MIC in experiment [1], in experiment [2] and in experiment [3] was over 40 µg/mL throughout.

As for `CCC1=C(O)C(CC)(CC)C(=O)C(C(=O)C2CC2c2ccc(C(F)(F)F)cc2C(F)(F)F)=C1O` (stereo not drawn) [Example 87, 2-(2-(2,4-bis(trifluoromethyl)phenyl)cyclopropanecarbonyl)-4,6,6-triethyl-3,5-dihydroxycyclohexa-2,4-dienone], the MIC in experiment [1] was over 40 µg/mL; in experiment [2], 3.2 µg/mL (≈ 6.52 µM); in experiment [3] it was 5.9 µg/mL (≈ 12 µM).

`O=C(/C=C/c1ccc(Oc2ccccn2)cc1)c1c(O)cc(O)cc1O` [Example 6, (E)-3-(4-(pyridin-2-yloxy)phenyl)-1-(2,4,6-trihydroxyphenyl)prop-2-en-1-one]: the MIC in experiment [1], in experiment [2] and in experiment [3] was over 40 µg/mL in each case.

Turning to `CCOc1ccc(C2CC2C(=O)c2c(O)cc(O)cc2O)cc1` (stereo not drawn) [Example 21, (2-(4-ethoxyphenyl)cyclopropyl)(2,4,6-trihydroxyphenyl)methanone], the MIC in experiment [1] is over 40 µg/mL; in experiment [2], 20 µg/mL (≈ 63.6 µM); in experiment [3], 16 µg/mL (≈ 50.9 µM).

`Cc1cc(Cl)ccc1C1CC1C(=O)c1c(O)cc(O)cc1O` (stereo not drawn) [Example 53, (2-(4-chloro-2-methylphenyl)cyclopropyl)(2,4,6-trihydroxyphenyl)methanone]: the values for the MIC in experiment [1], in experiment [2] and in experiment [3] were 5.3 µg/mL (≈ 16.6 µM), 4.7 µg/mL (≈ 14.7 µM) and 4.7 µg/mL (≈ 14.7 µM), respectively.

As for `O=C(c1c(O)cc(O)c(Cl)c1O)C1CC1c1ccc(Cl)cc1C(F)(F)F` (stereo not drawn) [Example 54, (3-chloro-2,4,6-trihydroxyphenyl)(2-(4-chloro-2-(trifluoromethyl)phenyl)cyclopropyl)methanone], the MIC came out at 17 µg/mL (≈ 41.8 µM) in experiment [1], 17 µg/mL (≈ 41.8 µM) in experiment [2] and 12 µg/mL (≈ 29.5 µM) in experiment [3].

For the compound `Cc1cc(Oc2ccccc2)ccc1/C=C/C(=O)c1c(O)cc(O)cc1O` [Example 31, (E)-3-(2-methyl-4-phenoxyphenyl)-1-(2,4,6-trihydroxyphenyl)prop-2-en-1-one], the figures for the MIC in experiment [1], in experiment [2] and in experiment [3] were 9.6 µg/mL (≈ 26.5 µM), 1.4 µg/mL (≈ 3.86 µM) and 5.8 µg/mL (≈ 16 µM), respectively.

For `CCCC1=C(O)C(CCC)(CCC)C(=O)C(C(=O)CCc2ccc(Oc3ccc(F)cc3)cc2)=C1O` [Example 64, 2-(3-(4-(4-fluorophenoxy)phenyl)propanoyl)-3,5-dihydroxy-4,6,6-tripropylcyclohexa-2,4-dienone], the MIC in experiment [1] amounted to 0.34 µg/mL (≈ 0.687 µM); in experiment [2], 0.34 µg/mL (≈ 0.687 µM); in experiment [3], 0.26 µg/mL (≈ 0.526 µM).

`CC1=C(O)C(C)(C)C(=O)C(C(=O)CCc2ccc(Oc3ccc(F)cc3)cc2)=C1O` [Example 78, 2-(3-(4-(4-fluorophenoxy)phenyl)propanoyl)-3,5-dihydroxy-4,6,6-trimethylcyclohexa-2,4-dienone]: the MIC in experiment [1] is over 40 µg/mL; in experiment [2] it was 6.5 µg/mL (≈ 15.8 µM); in experiment [3] it was over 40 µg/mL.

Consider `CCCC1=C(O)C(CCC)(CCC)C(=O)C(C(=O)C2CC2c2ccc(Oc3ccc(F)cc3)cc2)=C1O` (stereo not drawn) [Example 66, 2-(2-(4-(4-fluorophenoxy)phenyl)cyclopropanecarbonyl)-3,5-dihydroxy-4,6,6-tripropylcyclohexa-2,4-dienone], for which the MIC in experiment [1] is 0.55 µg/mL (≈ 1.09 µM); in experiment [2], 0.72 µg/mL (≈ 1.42 µM); in experiment [3], 0.16 µg/mL (≈ 0.316 µM).

`O=C(/C=C/c1ccc(C(F)(F)F)cc1C(F)(F)F)c1c(O)cc(O)cc1O` [Example 9, (E)-3-(2,4-bis(trifluoromethyl)phenyl)-1-(2,4,6-trihydroxyphenyl)prop-2-en-1-one]: the MIC in experiment [1] was 16 µg/mL (≈ 40.8 µM); in experiment [2] it was 8 µg/mL (≈ 20.4 µM); in experiment [3], 13 µg/mL (≈ 33.1 µM).

Regarding `Cc1cc(Oc2ccccc2)ccc1CCC(=O)c1c(O)cc(O)c(Cl)c1O` [Example 41, 1-(3-chloro-2,4,6-trihydroxyphenyl)-3-(2-methyl-4-phenoxyphenyl)propan-1-one], the MIC in experiment [1] came out at 19 µg/mL (≈ 47.6 µM); in experiment [2], 9.4 µg/mL (≈ 23.6 µM); in experiment [3] it was 19 µg/mL (≈ 47.6 µM).

Take `O=C(C=Cc1ccc(Oc2ccc(Cl)cc2)cc1)c1c(O)cc(O)cc1O` (mixture of isomers) [Example 5, (E)-3-(4-(4-chlorophenoxy)phenyl)-1-(2,4,6-trihydroxyphenyl)prop-2-en-1-one]: the figures for the MIC in experiment [1], in experiment [2] and in experiment [3] were 6 µg/mL, 1.6 µg/mL and 2.6 µg/mL, respectively.

`CCC1=C(O)C(CC)(CC)C(=O)C(C(=O)C2CC2c2ccc(Cl)cc2C)=C1O` (stereo not drawn) [Example 82, 2-(2-(4-chloro-2-methylphenyl)cyclopropanecarbonyl)-4,6,6-triethyl-3,5-dihydroxycyclohexa-2,4-dienone]: the MIC came out at 12 µg/mL (≈ 29.8 µM) in experiment [1], 1.2 µg/mL (≈ 2.98 µM) in experiment [2] and 3.6 µg/mL (≈ 8.93 µM) in experiment [3].

In the case of `O=C(c1c(O)cc(O)cc1O)C1CC1c1ccc(Oc2ccc(Cl)cc2)cc1C(F)(F)F` (stereo not drawn) [Example 25, (2-(4-(4-chlorophenoxy)-2-(trifluoromethyl)phenyl)cyclopropyl)(2,4,6-trihydroxyphenyl)methanone], the MIC in experiment [1] came to 1.7 µg/mL (≈ 3.66 µM); in experiment [2], 1.5 µg/mL (≈ 3.23 µM); in experiment [3] it was 1.7 µg/mL (≈ 3.66 µM).

Turning to `CCCC1=C(O)C(CCC)(CCC)C(=O)C(C(=O)C2CC2c2ccc(Oc3ccccc3)cc2)=C1O` (stereo not drawn) [Example 59, 3,5-dihydroxy-2-(2-(4-phenoxyphenyl)cyclopropanecarbonyl)-4,6,6-tripropylcyclohexa-2,4-dienone], the results for the MIC in experiment [1], in experiment [2] and in experiment [3] were 3 µg/mL (≈ 6.14 µM), 1.1 µg/mL (≈ 2.25 µM) and 0.7 µg/mL (≈ 1.43 µM), respectively.

For `O=C(/C=C/c1ccc(OCc2ccccc2)cc1)c1c(O)cc(O)cc1O` [Example 7], the MIC is over 40 µg/mL in experiment [1], 16 µg/mL (≈ 44.2 µM) in experiment [2] and over 40 µg/mL in experiment [3].

With `O=C(CCc1ccc(Oc2ccc(F)cc2)cc1)c1c(O)cc(O)cc1O` [Example 10, 3-(4-(4-fluorophenoxy)phenyl)-1-(2,4,6-trihydroxyphenyl)propan-1-one], the figures for the MIC in experiment [1], in experiment [2] and in experiment [3] were 5.1 µg/mL (≈ 13.8 µM), 1.5 µg/mL (≈ 4.07 µM) and 3.1 µg/mL (≈ 8.42 µM), respectively.

Regarding `O=C(/C=C/c1ccc(Oc2ccc(F)cc2)cc1C(F)(F)F)c1c(O)cc(O)cc1O` [Example 32, (E)-3-(4-(4-fluorophenoxy)-2-(trifluoromethyl)phenyl)-1-(2,4,6-trihydroxyphenyl)prop-2-en-1-one], the MIC in experiment [1] came to 5.7 µg/mL (≈ 13.1 µM); in experiment [2], 2.1 µg/mL (≈ 4.83 µM); in experiment [3] it was 3.5 µg/mL (≈ 8.06 µM).

The values above are taken from patent US10450292B2, “Inhibitors of bacterial RNA polymerase: arylpropanoyl, arylpropenoyl, and arylcyclopropanecarboxyl phloroglucinols” (Rutgers, The State University of New Jersey, priority 2015, dated 2019).
